The test system of assay [1] is Mycolicibacterium smegmatis. Put plainly: Antibacterial activity against Mycobacterium smegmatis ATCC 700084 incubated for 24 hrs by broth microdilution method. The format is functional. Conditions: ATCC 700084, 24 h. In general terms: Dilution methods test growth across graded concentrations, often in twofold steps.
The test system of the next assay is A549. Put plainly: Cytotoxicity against human A549 cells assessed as reduction in cell growth incubated for 5 days by MTT assay. The format is functional, cell-based. For orientation: Tetrazolium dyes change colour on reduction, which living cells bring about.
The subject of another assay is KB 3-1. Put plainly: Cytotoxicity against human KB3-1 cells assessed as reduction in cell growth incubated for 5 days by MTT assay. The format is functional, cell-based.
In the next assay the test system is A-431. Nature of the assay: Cytotoxicity against human A431 cells assessed as reduction in cell growth incubated for 5 days by MTT assay. The format is functional, cell-based.
A further assay concerns MCF7. Put plainly: Cytotoxicity against human MCF7 cells assessed as reduction in cell growth incubated for 5 days by MTT assay. The assay is classed as functional, cell-based.
A further assay deals with PC-3. Nature of the assay: Cytotoxicity against human PC3 cells assessed as reduction in cell growth incubated for 5 days by MTT assay. The format is functional, cell-based.
The test system of another assay is L929. Put plainly: Cytotoxicity against mouse L929 cells assessed as reduction in cell growth incubated for 5 days by MTT assay. The format is functional, cell-based.
Another assay has as its system SK-OV-3. Put plainly: Cytotoxicity against human SKOV3 cells assessed as reduction in cell growth incubated for 5 days by MTT assay. The format is functional, cell-based.
Assay [2] deals with Micrococcus luteus. Put plainly: Antibacterial activity against Micrococcus luteus DSM 1790 incubated for 24 hrs by broth microdilution method. The assay is classed as functional. Conditions: DSM 1790, 24 h.
Another assay deals with Staphylococcus aureus. Nature of the assay: Antibacterial activity against Staphylococcus aureus DSM 346 incubated for 24 hrs by broth microdilution method. The format is functional. Conditions: DSM 346, 24 h.
In assay [3] the test system is Chromobacterium violaceum. Nature of the assay: Antibacterial activity against Chromobacterium violaceum DSM 30191 incubated for 24 hrs by broth microdilution method. The format is functional. To be noted: DSM 30191, 24 h.
Assay [4] concerns Escherichia coli. Put plainly: Antibacterial activity against Escherichia coli DSM 1116 incubated for 24 hrs by broth microdilution method. To be noted: DSM 1116, 24 h. The format is functional.
The subject of assay [5] is Bacillus subtilis. Nature of the assay: Antibacterial activity against Bacillus subtilis DSM 10 incubated for 24 hrs by broth microdilution method. The format is functional. To be noted: DSM 10, 24 h.
The test system of assay [6] is Mucor hiemalis. Nature of the assay: Antifungal activity against Mucor hiemalis DSM 2656 incubated for 48 hrs by broth microdilution method. The assay is classed as functional.
Assay [7] relates to Escherichia coli. Put plainly: Antibacterial activity against Escherichia coli DSM 1116 at 66 ug/ml incubated for 24 hrs by broth microdilution method. The format is functional, organism-based.
The test system of assay [8] is Wickerhamomyces anomalus. Put plainly: Antifungal activity against Pichia anomala DSM 6766 at 66 ug/ml incubated for 48 hrs by broth microdilution method. The format is functional, organism-based.
Assay [9] concerns Mycolicibacterium smegmatis. Put plainly: Antibacterial activity against Mycobacterium smegmatis ATCC 700084 at 66 ug/ml incubated for 24 hrs by broth microdilution method. The assay is classed as functional, organism-based.
Assay [10] has as its system Chromobacterium violaceum. Nature of the assay: Antibacterial activity against Chromobacterium violaceum DSM 30191 at 66 ug/ml incubated for 24 hrs by broth microdilution method. The format is functional, organism-based.
For assay [11], the system named is Pseudomonas aeruginosa. Nature of the assay: Antibacterial activity against Pseudomonas aeruginosa DSM PA14 at 66 ug/ml incubated for 24 hrs by broth microdilution method. The assay is classed as functional, organism-based.
In assay [12] the test system is Candida albicans. Put plainly: Antifungal activity against Candida albicans DSM 1665 at 66 ug/ml incubated for 48 hrs by broth microdilution method. The format is functional, organism-based.
The next assay relates to Caenorhabditis elegans. Nature of the assay: Nematicidal activity against Caenorhabditis elegans incubated for 18 hrs. The assay is classed as functional. To be noted: for LC50: read-out: LD50 (the source's name).
Assay [13] concerns Rhodotorula glutinis. Put plainly: Antifungal activity against Rhodotorula glutinis DSM 10134 incubated for 48 hrs by broth microdilution method. The format is functional.
Assay [14] concerns Schizosaccharomyces pombe. Nature of the assay: Antifungal activity against Schizosaccharomyces pombe DSM 70572 incubated for 48 hrs by broth microdilution method. The format is functional.
The test system of assay [15] is Mucor hiemalis. Put plainly: Antifungal activity against Mucor hiemalis DSM 2656 at 66 ug/ml incubated for 48 hrs by broth microdilution method. The assay is classed as functional, organism-based.
The test system of assay [16] is Schizosaccharomyces pombe. Nature of the assay: Antifungal activity against Schizosaccharomyces pombe DSM 70572 at 66 ug/ml incubated for 48 hrs by broth microdilution method. The format is functional, organism-based.
Assay [17] relates to Rhodotorula glutinis. Put plainly: Antifungal activity against Rhodotorula glutinis DSM 10134 at 66 ug/ml incubated for 48 hrs by broth microdilution method. The format is functional, organism-based.
Assay [18] concerns Micrococcus luteus. Put plainly: Antibacterial activity against Micrococcus luteus DSM 1790 at 66 ug/ml incubated for 24 hrs by broth microdilution method. The format is functional, organism-based.
For assay [19], the system named is Bacillus subtilis. Put plainly: Antibacterial activity against Bacillus subtilis DSM 10 at 66 ug/ml incubated for 24 hrs by broth microdilution method. The assay is classed as functional, organism-based.
Assay [20] relates to Candida albicans. Nature of the assay: Antifungal activity against Candida albicans DSM 1665 incubated for 48 hrs by broth microdilution method. The assay is classed as functional.
Assay [21] concerns Wickerhamomyces anomalus. Put plainly: Antifungal activity against Pichia anomala DSM 6766 incubated for 48 hrs by broth microdilution method. The assay is classed as functional.
Assay [22] has as its system Pseudomonas aeruginosa. Put plainly: Antibacterial activity against Pseudomonas aeruginosa DSM PA14 incubated for 24 hrs by broth microdilution method. The format is functional, organism-based.
The mark [23] stands for this setting: Homo sapiens, A549, 120 h, read-out: IC50.
The mark [24] stands for this setting: Homo sapiens, KB 3-1, 120 h, read-out: IC50.
Setting [25] is: Homo sapiens, A-431, 120 h, read-out: IC50.
The mark [26] stands for this setting: Homo sapiens, MCF7, 120 h, read-out: IC50.
Where [27] appears, read: Homo sapiens, PC-3, 120 h, read-out: IC50.
Setting [28] is: Mus musculus, L929, 120 h, read-out: IC50.
The mark [29] stands for this setting: Homo sapiens, SK-OV-3, 120 h, read-out: IC50.

Converted amounts (≈) assume the structure as drawn. The source made the active and inactive calls. The calls are words filed in the database; no cut-off is given here.

As a reminder, the MIC is the least concentration at which growth counts as inhibited. Lower therefore signals inhibition by little substance. What is called IC50 is the point on the concentration scale where inhibition reaches its midpoint.

In turn, `NC[C@H]1O[C@H](O[C@H]2[C@H](O)[C@@H](O[C@H]3O[C@H](CO)[C@@H](O)[C@H](N)[C@H]3O)[C@H](N)C[C@@H]2N)[C@H](O)[C@@H](O)[C@@H]1O` [KANAMYCIN] showed an MIC in assay [1] of 4.1 µg/mL (≈ 8.46 µM).

With `C/C(=C\c1csc(C)n1)[C@@H]1C[C@@H]2O[C@]2(C)CCC[C@H](C)[C@H](O)[C@@H](C)C(=O)C(C)(C)[C@@H](O)CC(=O)O1` [PATUPILONE], the 50% inhibitory concentration (IC50) in the assay on A549 (setting [23]) amounted to 0.069 nM; with KB 3-1 (setting [24]), 0.089 nM; in the assay on A-431 (setting [25]), 0.079 nM; with MCF7 (setting [26]), 0.24 nM; in the assay on PC-3 (setting [27]) it was 1.6 nM; in the assay with L929 (setting [28]), 1.4 nM. Also, the IC50 in the assay with SK-OV-3 (setting [29]) is 0.28 nM.

In the case of `CN(C)[C@@H]1C(=O)C(C(N)=O)=C(O)[C@@]2(O)C(=O)C3=C(O)c4c(O)cccc4[C@@](C)(O)[C@H]3[C@H](O)[C@@H]12.Cl`, the MIC was 4.2 µg/mL in the assay with Micrococcus luteus [2]; 2.1 µg/mL against Staphylococcus aureus; 4.1 µg/mL in [3]; 33.3 µg/mL with Escherichia coli [4]; 2.4 µg/mL in the assay on Bacillus subtilis [5].

`O=C(O)/C=C/C=C1\C(=O)C=CC12Oc1cccc3cccc(c13)O2`: the MIC stood at 16.7 µg/mL (≈ 52.1 µM) in the assay with Mucor hiemalis [6] (DSM 2656, 48 h); 8.3 µg/mL (≈ 25.9 µM) against Micrococcus luteus [2]; 4.2 µg/mL (≈ 13.1 µM) against Staphylococcus aureus; 33.3 µg/mL (≈ 104 µM) against Rhodotorula glutinis [13] (DSM 10134, 48 h); 4.2 µg/mL (≈ 13.1 µM) in the assay with Bacillus subtilis [5]; 33.3 µg/mL (≈ 104 µM) in [14] (DSM 70572, 48 h). The outcome (in the assay on Escherichia coli [7]; in the assay on Wickerhamomyces anomalus [8]; in [9]; in assay [10]; in the assay with Pseudomonas aeruginosa [11]; in the assay with Candida albicans [12]) was inactive. For the same compound, the IC50 with A549 (setting [23]) came to 2200 nM; in the assay with KB 3-1 (setting [24]), 800 nM; in the assay with A-431 (setting [25]), 200 nM; in the assay with MCF7 (setting [26]), 400 nM; in the assay with PC-3 (setting [27]), 900 nM; with L929 (setting [28]) it was 600 nM. In addition, the IC50 in the assay on SK-OV-3 (setting [29]) stood at 600 nM. The LC50 in the assay on Caenorhabditis elegans worked out at 50 µg/mL (≈ 156 µM).

`O=C(O)/C=C/C=C1\[C@@H](O)C=CC12Oc1cccc3cccc(c13)O2`: the outcome (with Mucor hiemalis [15]; in assay [16]; with Escherichia coli [7]; in the assay with Rhodotorula glutinis [17]; in the assay with Wickerhamomyces anomalus [8]; in the assay with Micrococcus luteus [18]) was inactive. Further, the result (in assay [9]; in assay [10]; in the assay with Pseudomonas aeruginosa [11]; in the assay with Candida albicans [12]; in the assay with Bacillus subtilis [19]) was inactive. In addition, in the assay on Staphylococcus aureus, the lowest concentration to inhibit growth (MIC) was 66.6 µg/mL (≈ 207 µM). The IC50 result in the assay with A549 (a549), in the assay with KB 3-1 (kb 3-1), in the assay with A-431 (a-431), in the assay on MCF7 (mcf7), in the assay with PC-3 (pc-3) and in the assay with L929 (l929) was “Not Active” in each case. The IC50 result in the assay on SK-OV-3 (sk-ov-3) is listed as “Not Active”. Besides, the LC50 in the assay on Caenorhabditis elegans turned out to be 50 µg/mL (≈ 155 µM).

Consider `O=C(O)/C=C/C=C1\[C@@H](O)C[C@H](O)C12Oc1cccc3cccc(c13)O2`, for which the result (in the assay on Mucor hiemalis [15]; in assay [16]; in the assay with Escherichia coli [7]; in the assay on Rhodotorula glutinis [17]; in the assay on Wickerhamomyces anomalus [8]; in the assay with Micrococcus luteus [18]) was inactive. The result (in assay [9]; in assay [10]; in the assay with Pseudomonas aeruginosa [11]; in the assay with Candida albicans [12]; in the assay on Bacillus subtilis [19]) was inactive. This compound came in with an MIC in the assay with Staphylococcus aureus of 66.6 µg/mL (≈ 196 µM). Moreover, the IC50 entry in the assay on A549 (a549), in the assay with KB 3-1 (kb 3-1), in the assay on A-431 (a-431), in the assay on MCF7 (mcf7), with PC-3 (pc-3) and in the assay on L929 (l929) was “Not Active” in each case. Also, in the assay on SK-OV-3 (sk-ov-3), the IC50 result is “Not Active”. For the same compound, in the assay on Caenorhabditis elegans, the LC50 stood at 50 µg/mL (≈ 147 µM).

In the case of NYSTATIN, the minimal inhibitory concentration (MIC) against Mucor hiemalis [6] came out at 4.2 µg/mL; with Candida albicans [20] it was 8.3 µg/mL; with Wickerhamomyces anomalus [21] it was 8.3 µg/mL; against Rhodotorula glutinis [13], 1 µg/mL; in assay [14], 8.3 µg/mL.

With IVERMECTIN, the LD50 with Caenorhabditis elegans amounted to 1 µg/mL.

GENTAMICIN yielded an MIC with Pseudomonas aeruginosa [22] of 1 µg/mL.

For `O=C(O)/C=C/C[C@H]1[C@@H](O)C=CC12Oc1cccc3cccc(c13)O2`, the result (in the assay on Mucor hiemalis [15]; in [16]; with Escherichia coli [7]; in the assay on Rhodotorula glutinis [17]; in the assay on Wickerhamomyces anomalus [8]; in the assay with Micrococcus luteus [18]) was inactive. Also, the outcome (in assay [9]; in assay [10]; in the assay on Pseudomonas aeruginosa [11]; in the assay on Candida albicans [12]; in the assay with Bacillus subtilis [19]) was inactive. Further, 66.6 µg/mL (≈ 205 µM) was the least that counted as inhibitory in the assay with Staphylococcus aureus (MIC). Also, the 50% inhibitory concentration (IC50) entry was “Not Active” with A549 (a549); 40100 nM with KB 3-1 (setting [24]); “Not Active” in the assay with A-431 (a-431); “Not Active” with MCF7 (mcf7); “Not Active” in the assay with PC-3 (pc-3); “Not Active” in the assay on L929 (l929). In addition, in the assay with SK-OV-3 (sk-ov-3), the half-inhibitory concentration (IC50) result was “Not Active”. The LC50 with Caenorhabditis elegans was 25 µg/mL (≈ 77.1 µM).

(Values after ChEMBL document CHEMBL4414615, “Sparticolins A-G, Biologically Active Oxidized Spirodioxynaphthalene Derivatives from the Ascomycete Sparticola junci” (J Nat Prod, 2019).)
